Paper PMC11574108, “4-Furanylvinylquinoline derivative as a new scaffold for the design of oxidative stress initiator and glucose transporter inhibitor drugs” (Scientific Reports, 2024)

Experiments:
Type in all cases: cell-based, human
HCT 116 p53+/+ [1] = test: Apoptosis induction assay (Annexin V/7-AAD); details: 0.5 µM, 48 h; control nearly 6%
Protocol: (§1) The cells were seeded in 35 mm Petri dishes (200,000 per dish) and incubated at 37 °C overnight. The following day, the medium was changed for a freshly prepared 0.5 µM solution of 13. Analysis was carried out after 48 h using an FITC Annexin V Apoptosis Detection KIT with 7-AAD (Bio-Legend) according to the manufacturer’s protocol. In brief, both adherent and detached cells were collected, washed two times with cold PBS, and centrifuged at 300 g (5 min). Next, the cells were resuspended in 100 µL Annexin V Binding Buffer, 5 µL of FITC Annexin V, and 5 µL 7-AAD Viability Staining Solution. The samples were incubated in the dark for 15 min at room temperature. The percentage of live and apoptotic (sum of early and late apoptotic) cells was estimated using a Muse™ Cell Analyzer. The experiments were carried out three times.
(§2) Because derivative 13 affected the cell cycle progression, we decided to determine the type of induced cell death by focusing on the apoptosis pathway. The analysis was performed by measuring the green fluorescence of the annexin V – FITC dye conjugate using capillary flow cytometry. Positive staining is observed when the annexin V binds to the disintegrated membrane of apoptotic cells. […]

HCT 116 p53-/- [2] = test: Apoptosis induction assay (Annexin V/7-AAD); details: 0.5 µM, 48 h; control nearly 6%
Protocol: as §1, §2

HCT 116 p53+/+ [3] = test: Intracellular ROS level measurement (CellROX Green); details: 1 µM, 24 h
Protocol: (§3) The cells (9,000 per well) were seeded in 96-well plates and treated with at freshly prepared 1 µM solution of 13 for 3, 6, 9, 12, and 24 h. The ROS levels were measured immediately according to the CellROX Green Reagent procedure. Additionally, the number of cells in each well during measurement was estimated using Hoechst 33,342 (Molecular Probes™). Briefly, after treatment the medium was removed and […] mixture of CellROX Green Reagent ([…]) and Hoechst 33,342 ([…]) was added to each well. The plates were incubated for 30 min at 37 °C in the dark, and the fluorescence of samples was then measured using a multiplate reader (Synergy 4, Bio Tek). Readings were performed at 485 nm excitation and 520 nm emission, as well as at 345 nm excitation and 485 nm emission for the CellROX Green Reagent and Hoechst 33,342, respectively. ROS levels were calculated as the percentage relative to the untreated cell levels (control). The experiments were carried out three times.
(§4) To determine the ROS level, the fluorescent CellROX Green Reagent was used, being measured by a spectroscopic multi-plate reader. […] The ROS level was several percent higher compared to the control after only 3 h. After 24 h the amount of ROS increased by as much as 50% relative to the untreated cells. Similar observations were made in the case of the HCT 116 p53^+/+ cells. However, the generation of ROS was less pronounced, especially at the first time points. Nevertheless, after 24 h, the level of ROS was about 40% higher. […] The highest (20% growth) occurred after 9 h and 24 h. […] The intracellular ROS levels are rapidly regulated by activated p53, which initially decreases and then subsequently increases them[42]. The weaker response toward ROS generation in these cells might have been caused by the fact that U-251 cells are resistant to exposure to oxidative stress. […] Additionally, cancer cells with a p53 mutation have a higher level of ROS than those with the wild type. Some p53 mutants can gain oncogenic features that are described as “gain-of-function” (GOF), among them being U-251 cells. […]

HCT 116 p53-/- [4] = test: as above; details: 1 µM, 24 h
Protocol: as §3, §4

U-251 = test: as above; details: 1 µM, after 9 h and 24 h
Protocol: as §3, §4

CDK1 = test: qRT-PCR, CDK1 mRNA expression; details: for CDK1 mRNA level vs control: HCT 116 p53-/-, 24 h
Protocol: The cells were seeded in 35 mm Petri dishes at a density of 500,000 cells and incubated at 37 °C for 24 h. The total RNA was isolated after incubation with solutions of 13 (0.5 µM and 1.0 µM) for 24 h and 48 h, respectively. The isolation from the samples was carried out according to a TRIzol™ Reagent protocol (Thermo Fisher Scientific). Synthesis of cDNA was performed with 2 µg of total RNA using a GoScript™ Reverse Transcriptase kit (Promega) with Oligo(dT)23 Primers. Real-Time PCR was carried out using a CFX96 Touch™ Real-Time PCR Detection System (Bio-Rad) in 10 µL reaction volume. Each sample contained SsoAdvanced™ Universal SYBR Green Supermix (Bio Rad), a specific primer pair mix (0.5 µM each), and 1 µL of cDNA. The reaction was performed under the following conditions: initial denaturation at 95 °C for 30 s; 40 cycles of denaturation at 95 °C for 15 s; annealing (primer-specific temperature) for 30 s, and extension at 72 °C for 60 s. The obtained data were analysed based on a comparison of the expression of the target genes and normalized to a reference gene (GAPDH) using the Livak-Schmittgen (2^−ΔΔCT) method. The experiments were performed at least three times.
In the next step, we decided to investigate the impact of derivative 13 on the mRNA level of CDK1 (the gene encoding one of the cell cycle regulation proteins) at various concentrations and time points (Fig. 4B). In the HCT 116 p53^+/+ cells after the application 0.5 µM of derivative 13, we noticed a slight increase in the expression of CDK1 after both 24 and 48-h. […] However, after a further incubation time, the mRNA level of this gene was similar to that in the untreated cells.

## O=[N+]([O-])c1ccc(/C=C/c2ccnc3ccccc23)o1 [Compound 13]
HCT 116 p53+/+ [1]
  percentage of apoptotic cells: 40%
HCT 116 p53-/- [2]
  percentage of apoptotic cells: 30%
HCT 116 p53+/+ [3]
  ROS level increase relative to untreated cells: about 40%
HCT 116 p53-/- [4]
  ROS level increase relative to untreated cells: 50%
U-251
  ROS level increase relative to untreated cells: 20%
CDK1; 0.5 µM
  CDK1 mRNA level vs control: two-fold higher
CDK1; 1 µM
  CDK1 mRNA level vs control: around one and the half times
CDK1; U-251, 24 h
  CDK1 mRNA expression vs control: greater than two-fold upregulation
